This experiment concerns the target 3',5'-cyclic-AMP phosphodiesterase 4B (Homo sapiens, UniProt Q07343). Put plainly: Inhibition In Vitro Assay: PDE4A, PDE4B, PDE4C, PDE4D, and PDE5 human recombinant proteins are expressed and purified from Saccharomyes cerevisiae that lack endogenous PDEs. The phosphodiesterase enzymes are diluted on ice with enzyme dilution buffer (25 mM Tris, pH 7.5, 0.1 mM DTT, 5.0 mM MgCl2, 100 mM NaCl, 5 μM ZnSO4, 100 μg/mL BSA) to give approximately 20%-40% hydrolysis of cyclic nucleotide monophosphate (cNMP) in the absence of inhibitor. The stock solution of test compounds are diluted on the Beckman BioMek™ 1000 workstation to span a concentration range of 4.5 log units in 0.5 log increments. The DMSO concentration in the final test system is 2.5% for all PDE enzymes. The final test compound concentration tested ranged from 0.03 nM to 1 μM. The assay is performed in a 96-well microtiter plate format on a Beckman BioMek™ 1000 robotic station. Each row of the plate represents a 10-point dose response curve containing blank (no enzyme), non-inhibited control, and inhibitor dilutions spanning 4.5 log units in concentration in 0.5 log increments. Assay stock solutions are loaded into the Biomek™ reservoirs (water, inhibitor diluent [2.5% or 10% DMSO], 5× PDE assay buffer, substrate, inhibitor solutions, enzyme solutions, snake venom nucleotidase, and charcoal suspension). The reaction is initiated with enzyme, and incubated for 15 minutes at 30° C. […].

By IC50 is commonly meant the midpoint of a concentration-inhibition curve.

Chain of 3',5'-cyclic-AMP phosphodiesterase 4B (Q07343 whole entry): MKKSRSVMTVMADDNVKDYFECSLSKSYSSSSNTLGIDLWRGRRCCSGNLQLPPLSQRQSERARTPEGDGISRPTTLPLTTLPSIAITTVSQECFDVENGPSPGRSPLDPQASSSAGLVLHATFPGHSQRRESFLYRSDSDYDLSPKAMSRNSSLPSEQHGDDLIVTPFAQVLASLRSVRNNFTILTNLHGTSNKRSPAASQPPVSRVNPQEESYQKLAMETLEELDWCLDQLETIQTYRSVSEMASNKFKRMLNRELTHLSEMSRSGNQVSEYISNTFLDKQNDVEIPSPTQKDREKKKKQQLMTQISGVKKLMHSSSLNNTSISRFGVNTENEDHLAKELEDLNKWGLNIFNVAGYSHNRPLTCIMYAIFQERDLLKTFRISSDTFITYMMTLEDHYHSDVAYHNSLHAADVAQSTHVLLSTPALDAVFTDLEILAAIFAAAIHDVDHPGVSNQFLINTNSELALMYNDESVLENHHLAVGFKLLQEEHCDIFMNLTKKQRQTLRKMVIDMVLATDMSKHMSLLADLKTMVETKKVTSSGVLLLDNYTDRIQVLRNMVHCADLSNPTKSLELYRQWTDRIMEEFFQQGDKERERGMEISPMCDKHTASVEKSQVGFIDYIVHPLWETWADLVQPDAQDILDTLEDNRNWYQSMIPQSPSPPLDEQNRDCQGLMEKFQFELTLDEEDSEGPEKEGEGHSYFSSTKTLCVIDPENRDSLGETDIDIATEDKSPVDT

As for `COc1ccc([C@@H]2CN(C(=O)[C@@H](O)CO)C[C@@]2(C)[C@@H](C)O)cc1OC1CN(c2cnccn2)C1`, the IC50 amounted to 14 nM.

The values above are taken from ChEMBL document CHEMBL5727973, “Azetidinyloxyphenylpyrrolidine compounds” (2020).
